According to patent publication US11168083B2, “Inhibitors of Plasma Kallikrein and uses thereof” (Takeda Pharmaceutical Company Limited, priority 2017, dated 2021):

Each compound was assayed against human activated kallikrein enzyme (Homo sapiens (Human), UniProt P03952) (assay: Inhibition of human activated kallikrein enzyme, fluorogenic peptide substrate assay (two formats)). Conditions: Table 2; column head prints nM, ranges defined in μM; read-out: pKal EC50.
Format: biochemical
Experimental: The example compounds were evaluated for inhibition of the human activated kallikrein enzyme in two formats of an assay employing a fluorogenic peptide substrate. In one assay format, the concentrations of reagents were as follows: 20 mM Tris pH 7.5, 1 mM EDTA, 150 mM sodium chloride, 0.1% PEG-400, 0.1% Triton X-100, 500 pM activated kallikrein enzyme, 300 uM Pro-Phe-Arg-7-amido-4-methylcoumarin substrate. Prior to reaction initiation with substrate, enzyme and inhibitors were preincubated for 30 min at room temperature. After initiation with substrate, reactions were incubated for 10 min at room temperature and fluorescence emission at 460 nm from 380 nm excitation measured with a microplate reader. In another assay format, the concentrations of reagents were as follows: 20 mM Tris pH 7.5, 1 mM EDTA, 150 mM sodium chloride, 0.1% PEG-400, 0.1% Triton X-100, 5 pM activated kallikrein enzyme, 300 uM Pro-Phe-Arg-7-amido-4-methylcoumarin substrate. Prior to reaction initiation with substrate, enzyme and inhibitors were preincubated for 30 min at room temperature. After initiation with substrate, reactions were incubated for 18 hr at room temperature and fluorescence emission at 460 nm from 380 nm excitation measured with a microplate reader.

human activated kallikrein enzyme, sequence (P03952 391-638): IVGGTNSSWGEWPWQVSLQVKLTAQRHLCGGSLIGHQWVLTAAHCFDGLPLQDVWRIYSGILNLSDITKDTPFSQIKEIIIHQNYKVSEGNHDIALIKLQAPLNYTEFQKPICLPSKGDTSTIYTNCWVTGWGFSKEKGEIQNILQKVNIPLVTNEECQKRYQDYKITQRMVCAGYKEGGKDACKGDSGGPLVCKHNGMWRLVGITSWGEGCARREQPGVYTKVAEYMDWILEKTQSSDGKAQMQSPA
human activated kallikrein enzyme, sequence (P03952 20-390 partner): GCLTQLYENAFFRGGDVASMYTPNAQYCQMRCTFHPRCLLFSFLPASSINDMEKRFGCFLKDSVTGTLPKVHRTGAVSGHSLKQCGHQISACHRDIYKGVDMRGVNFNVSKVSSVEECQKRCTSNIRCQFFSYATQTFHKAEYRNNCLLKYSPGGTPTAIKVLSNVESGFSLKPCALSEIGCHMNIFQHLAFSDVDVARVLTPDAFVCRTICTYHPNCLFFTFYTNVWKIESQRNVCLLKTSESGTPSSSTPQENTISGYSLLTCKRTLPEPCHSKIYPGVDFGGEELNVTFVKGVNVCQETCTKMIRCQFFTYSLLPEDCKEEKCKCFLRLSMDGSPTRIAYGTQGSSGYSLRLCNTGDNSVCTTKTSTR

| Compound | EC50 [nM] |
| --- | --- |
| N=C(N)c1ccc(CCNC(=O)c2csc([C@@H]3C[C@@H](N)CN3C(=O)c3cn4cc(Cl)ccc4n3)n2)cc1 [Compound 51, 2-((2S,4R)-4-amino-1-(6-chloroimidazo[1,2-a]pyridine-2-carbonyl)pyrrolidin-2-yl)-N-(4-carbamimidoylphenethyl)thiazole-4-carboxamide] | ≤ 100 |
| CNC(=O)[C@H](CCCCNC(=N)N)NC(=O)c1csc([C@@H]2C[C@@H](N)CN2C(=O)c2cn(C)c(C)n2)n1 [Compound 14, 2-((2S,4R)-4-amino-1-(1,2-dimethyl-1H-imidazole-4-carbonyl)pyrrolidin-2-yl)-N—((S)-6-guanidino-1-(methylamino)-1-oxohexan-2-yl)thiazole-4-carboxamide] | > 9900 |
| CNC(=O)[C@H](Cc1c[nH]cn1)NC(=O)c1csc([C@@H]2C[C@@H](N)CN2C(=O)c2cn3cc(Cl)ccc3n2)n1 [Compound 30, N—((S)-3-(1H-imidazol-4-yl)-1-(methylamino)-1-oxopropan-2-yl)-2-((2S,4R)-4-amino-1-(6-chloroimidazo[1,2-a]pyridine-2-carbonyl)pyrrolidin-2-yl)thiazole-4-carboxamide] | > 9900 |
| CNC(=O)[C@H](CCCCNC(=N)N)NC(=O)c1csc([C@@H]2C[C@@H](N)CN2C(=O)OCc2cccc(Cl)c2)n1 [Compound 16, 3-chlorobenzyl (2S,4R)-4-amino-2-(4-(((S)-6-guanidino-1-(methylamino)-1-oxohexan-2-yl)carbamoyl)thiazol-2-yl)pyrrolidine-1-carboxylate] | 1000 to 5000 |
| CNC(=O)[C@@H](CCCCNC(=N)N)NC(=O)c1csc([C@H]2C[C@@H](O)CN2C(=O)c2cn3cc(Cl)ccc3n2)n1 [Compound 10, 2-((2R,4R)-1-(6-Chloroimidazo[1,2-a]pyridine-2-carbonyl)-4-hydroxypyrrolidin-2-yl)-N—((R)-6-guanidino-1-(methylamino)-1-oxohexan-2-yl)thiazole-4-carboxamide] | > 9900 |
| CNC(=O)[C@H](CCCCNC(C)=O)NC(=O)c1csc([C@@H]2C[C@@H](N)CN2C(=O)c2cn3cc(Cl)ccc3n2)n1 [Compound 26, N—((S)-6-acetamido-1-(methylamino)-1-oxohexan-2-yl)-2-((2S,4R)-4-amino-1-(6-chloroimidazo[1,2-a]pyridine-2-carbonyl)pyrrolidin-2-yl)thiazole-4-carboxamide] | > 9900 |
| N=C(N)NCCCC[C@H](NC(=O)c1csc([C@@H]2C[C@@H](N)CN2C(=O)c2cn3cc(Cl)ccc3n2)n1)C(=O)O [Compound 23, N^2-(2-((2S,4R)-4-amino-1-(6-chloroimidazo[1,2-a]pyridine-2-carbonyl)pyrrolidin-2-yl)thiazole-4-carbonyl)-N6-carbamimidoyl-L-lysine] | ≤ 100 |
| CNC(=O)[C@H](CCCCNC(=N)N)NC(=O)c1csc([C@@H]2C[C@@H](N)CN2C(=O)c2cc3c(Cl)cccc3s2)n1 [Compound 63, 2-((2S,4R)-4-amino-1-(4-chlorobenzo[b]thiophene-2-carbonyl)pyrrolidin-2-yl)-N—((S)-6-guanidino-1-(methylamino)-1-oxohexan-2-yl)thiazole-4-carboxamide] | 1000 to 5000 |
| CNC(=O)[C@@H](CCCCNC(=N)N)NC(=O)c1csc([C@H]2C[C@@H](N)CN2C(=O)c2cn3cc(Cl)ccc3n2)n1 [Compound 2, 2-((2R,4R)-4-amino-1-(6-chloroimidazo[1,2-a]pyridine-2-carbonyl)pyrrolidin-2-yl)-N—((R)-6-guanidino-1-(methylamino)-1-oxohexan-2-yl)thiazole-4-carboxamide] | > 9900 |
| CNC(=O)[C@H](CCCCNC(=N)N)NC(=O)c1csc([C@H]2C[C@@H](NC(C)=O)CN2C(=O)c2cn3cc(Cl)ccc3n2)n1 [Compound 5, 2-((2R,4R)-4-acetamido-1-(6-chloroimidazo[1,2-a]pyridine-2-carbonyl)pyrrolidin-2-yl)-N—((S)-6-guanidino-1-(methylamino)-1-oxohexan-2-yl)thiazole-4-carboxamide] | > 9900 |
